Test results taken from patent US11479802B2, “Assays for screening activity of modulators of members of the hydroxy steroid (17-beta) dehydrogenase (HSD17B) family” (Regeneron Pharmaceuticals, Inc., priority 2017, dated 2022).
Counter-ions that a name gives are not always drawn.

Target: T1, human HSD17B13 (Homo sapiens, UniProt Q7Z5P4)
T1 sequence (Q7Z5P4 20-300): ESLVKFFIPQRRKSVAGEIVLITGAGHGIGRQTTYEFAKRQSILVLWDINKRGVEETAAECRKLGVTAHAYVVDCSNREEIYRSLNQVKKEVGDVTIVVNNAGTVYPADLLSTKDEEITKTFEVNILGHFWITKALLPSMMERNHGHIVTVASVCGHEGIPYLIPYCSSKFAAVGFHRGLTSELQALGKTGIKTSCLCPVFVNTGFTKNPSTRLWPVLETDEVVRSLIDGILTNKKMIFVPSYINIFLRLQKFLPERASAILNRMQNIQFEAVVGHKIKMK
Test: Substrate screening of steroid and bioactive lipid libraries against purified recombinant HSD17B13 (NADH-linked luciferase assay)
Format: biochemical
Conditions: for HSD17B13 Enzymatic Activity Relative Light Units: 500 μM NAD+, 100 ng enzyme, 3 hours at 23° C.; for HSD17B13 Enzymatic Activity Percent Estradiol Control: normalized to 50 μM estradiol after subtraction of 5% DMSO
Outline: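 Recombinant human HSD17B13 (100 ng) incubated 3 h at 23° C in 0.2 M Tris-HCl pH 7.5 with 500 μM NAD+ and 5 μM bioactive lipid or 50 μM steroid (5% DMSO). NADH measured by luciferase luminescence after 1 h; values as percent of 50 μM estradiol control after 5% DMSO subtraction.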

[1] = Bioactive Lipid Library, 5 μM bioactive lipid (Estradiol Control 50 μM)
[2] = Bioactive Lipid Library, 5 μM bioactive lipid

Row | SMILES | HSD17B13 Enzymatic Activity Relative Light Units (Steroid Library, 50 μM steroid) [RLU] | HSD17B13 Enzymatic Activity Percent Estradiol Control (Steroid Library, 50 μM steroid) [%] | HSD17B13 Enzymatic Activity Relative Light Units [1] [RLU] | HSD17B13 Enzymatic Activity Percent Estradiol Control [2] [%]
1 | CC(=O)OCC(=O)[C@@]1(O)CC[C@H]2[C@@H]3CCC4=CC(=O)CC[C@]4(C)[C@H]3C(=O)C[C@@]21C [Cortisone 21-acetate] | 200240 | 0.69 |  | 
2 | C[C@]12CCC(=O)C=C1CC[C@@H]1[C@@H]2C(=O)C[C@@]2(C)[C@H]1CC[C@]2(O)C(=O)CO [Cortisone] | 204080 | 0.76 |  | 
3 | O=P([O-])(O)OC1[C@@H](O)[C@H](OP(=O)([O-])O)C(OP(=O)([O-])O)[C@H](OP(=O)([O-])O)[C@H]1O.[Na+].[Na+].[Na+].[Na+] (stereo partly drawn) [D-myo-Inositol-1,2,3,5-tetraphosphate (sodium salt)] |  |  | 430640 | 7.98
4 | O=P(O)(O)O[C@@H]1[C@H](OP(=O)(O)O)[C@H](OP(=O)(O)O)[C@@H](O)[C@H](O)[C@H]1OP(=O)(O)O [D-myo-Inositol-1,2,3,6-tetraphosphate (sodium salt)] |  |  | 424280 | 7.49
5 | O=P(O)(O)OC1[C@@H](OP(=O)(O)O)[C@H](OP(=O)(O)O)C(O)[C@H](OP(=O)(O)O)[C@H]1OP(=O)(O)O (stereo partly drawn) [D-myo-Inositol-1,2,4,5,6-pentaphosphate (sodium salt)] |  |  | 398080 | 5.52
6 | O=P(O)(O)O[C@@H]1C(O)[C@@H](OP(=O)(O)O)[C@@H](OP(=O)(O)O)C(O)[C@H]1OP(=O)(O)O (stereo partly drawn) [D-myo-Inositol-1,2,4,5-tetraphosphate (sodium salt)] |  |  | 403880 | 5.95
7 | O=P(O)(O)OC1[C@H](O)[C@H](OP(=O)(O)O)C(OP(=O)(O)O)[C@H](OP(=O)(O)O)[C@H]1O (stereo partly drawn) [D-myo-Inositol-1,3,4,5-tetraphosphate (sodium salt)] |  |  | 358920 | 2.56
8 | O=P(O)(O)O[C@@H]1C(O)[C@H](OP(=O)(O)O)[C@@H](O)C(O)[C@H]1O (stereo partly drawn) [D-myo-Inositol-1,3-diphosphate (sodium salt)] |  |  | 487280 | 12.25
9 | O=P(O)(O)O[C@@H]1[C@H](O)[C@H](O)[C@@H](OP(=O)(O)O)[C@H](OP(=O)(O)O)[C@H]1O [D-myo-Inositol-1,4,5-triphosphate (potassium salt)] |  |  | 358400 | 2.52
10 | O=P(O)(O)OC1[C@@H](O)[C@@H](O)C(OP(=O)(O)O)[C@H](O)[C@H]1O (stereo partly drawn) [D-myo-Inositol-1,4-diphosphate (sodium salt)] |  |  | 439280 | 8.63
11 | O=P([O-])(O)O[C@@H]1C(O)[C@H](OP(=O)([O-])O)[C@H](O)C(O)[C@H]1O.[Na+].[Na+] (stereo partly drawn) [D-myo-Inositol-1,5-diphosphate (sodium salt)] |  |  | 443840 | 8.97
12 | O=P(O)(O)O[C@@H]1[C@@H](OP(=O)(O)O)[C@@H](OP(=O)(O)O)[C@@H](O)[C@H](O)[C@H]1OP(=O)(O)O [D-myo-Inositol-2,3,4,5-tetraphosphate (ammonium salt)] |  |  | 372320 | 3.57
13 | O=P(O)(O)O[C@@H]1C(O)[C@@H](OP(=O)(O)O)[C@@H](O)C(O)[C@H]1O (stereo partly drawn) [D-myo-Inositol-2,4-diphosphate (sodium salt)] |  |  | 306720 | −1.38
14 | O=P(O)(O)OC1[C@@H](OP(=O)(O)O)[C@H](O)C(O)[C@@H](O)[C@H]1OP(=O)(O)O (stereo partly drawn) [D-myo-Inositol-3,4,5-triphosphate (sodium salt)] |  |  | 400520 | 5.70
15 | O=P([O-])(O)O[C@@H]1[C@@H](O)[C@H](O)[C@H](O)[C@H](O)[C@H]1OP(=O)([O-])O.[Na+].[Na+] [D-myo-Inositol-4,5-diphosphate (sodium salt)] |  |  | 281680 | −3.27
16 | O=P(O)(O)OC1[C@@H](O)[C@@H](O)C(O)[C@H](O)[C@H]1O (stereo partly drawn) [D-myo-Inositol-4-phosphate (ammonium salt)] |  |  | 408880 | 6.33
17 | C[C@]12CC[C@H](O)CC1=CC[C@@H]1[C@@H]2CC[C@]2(C)C(=O)CC[C@@H]12 [Dehydroepiandrosterone] | 196240 | 0.62 |  | 
18 | CCC(=O)O[C@H]1CC[C@H]2[C@@H]3CC[C@H]4CC(=O)[C@H](C)C[C@]4(C)[C@H]3CC[C@]12C [Dromostanolone proprionate] | 212040 | 0.90 |  | 
19 | C[C@]12CC[C@H](O)C[C@@H]1CC[C@@H]1[C@@H]2CC[C@]2(C)C(=O)CC[C@@H]12 [Epiandrosterone] | 185800 | 0.44 |  | 

Row | SMILES | HSD17B13 Enzymatic Activity Relative Light Units (Steroid Library, 50 μM steroid) [RLU] | HSD17B13 Enzymatic Activity Percent Estradiol Control (Steroid Library, 50 μM steroid) [%] | HSD17B13 Enzymatic Activity Relative Light Units [1] [RLU] | HSD17B13 Enzymatic Activity Percent Estradiol Control [2] [%]
20 | C[C@]12CC[C@@H]3c4ccc(O)cc4CC[C@H]3[C@@H]1CCC2=O [Estrone] |  | 0.45 |  | 
21 | CC(C)OC(=O)CCC/C=C\C[C@@H]1[C@@H](/C=C/[C@@H](O)COc2cccc(C(F)(F)F)c2)[C@H](O)C[C@@H]1O [Fluprostenol isopropyl ester] |  |  | 467040 | 14.54
22 | C[C@]12CCC(=O)C(O)=C1CC[C@@H]1[C@@H]2CC[C@]2(C)C(=O)CC[C@@H]12 [Formestane] |  | 0.63 |  | 
23 | C=CCc1ccc(O)c(-c2ccc(O)c(CC=C)c2)c1 [Honokiol] | 52920 | −1.88 |  | 
24 | CC(C)=CCC[C@]1(C)[C@@H](CC=C(C)C)C[C@@]2(CC=C(C)C)C(=O)[C@]1(C(=O)C(C)C)C(=O)C(CC=C(C)C)=C2O [Hyperforin] |  |  | 23920 | −22.74
25 | O=C(O)CCC/C=C\C[C@@H]1[C@@H](/C=C/[C@@H](O)COc2ccc(I)cc2)[C@H]2CC[C@@H]1O2 [I-BOP] |  |  | 358960 | 6.00
26 | CC1(C)[C@@H]2C[C@H](NS(=O)(=O)c3ccc(I)cc3)[C@@H](C/C=C\CCCC(=O)O)[C@H]1C2 [I-SAP] |  |  | 245520 | −2.97
27 | CC#CCC(C)[C@H](O)/C=C/[C@@H]1[C@H]2C/C(=C/CCCC(=O)O)C[C@H]2C[C@H]1O (some centres unmarked) [Iloprost] |  |  | 358880 | 5.99
28 | CC(=O)N[C@@H](CSC(=O)[C@]1([C@@H](O)C(C)C)NC(=O)[C@H](C)[C@@H]1O)C(=O)O [Lactacystin] |  |  | 328520 | 0.26
29 | CCCCCCCC\C=C/C=C/C=C/[C@@H]1O[C@H]1CCCC(=O)OC [Leukotriene A3 methyl ester] |  |  | 990560 | 55.92
30 | CCCCC/C=C\C\C=C/C=C/C=C/[C@@H]1O[C@H]1CCCC(=O)OC [Leukotriene A4 methyl ester] |  |  | 463120 | 14.23
31 | CCCCCCCC[C@H](O)/C=C/C=C\C=C\[C@H](O)CCCC(=O)O [Leukotriene B3] |  |  | 2077280 | 141.82
32 | CCCCC/C=C\C[C@@H](O)/C=C/C=C/C=C\[C@@H](O)CCCC(=O)NCCO [Leukotriene B4 Ethanolamide] |  |  | 1948920 | 131.68
33 | CCCCC/C=C\C[C@@H](O)/C=C/C=C/C=C\[C@@H](O)CCCC(=O)N(C)C [Leukotriene B4 dimethyl amide] |  |  | 1910040 | 128.60
34 | CCCCC/C=C\C\C=C/C=C/C=C/[C@@H](SC[C@H](NC(=O)CC[C@@H](N)C(=O)O)C(=O)O)[C@@H](O)CCCC(=O)O [Leukotriene F4] |  |  | 400400 | 9.27
35 | CCCCC[C@H](O)/C=C/C=C\C=C\C=C\[C@@H](O)[C@@H](O)CCCC(=O)O [Lipoxin A4] |  |  | 352680 | 2.09
36 | CN(C)C(=O)CCSC(SCCC(=O)O)c1cccc(/C=C/c2ccc3ccc(Cl)cc3n2)c1 (centres unmarked) [MK-571] |  |  | 281520 | −0.12
37 | CCCCCCCC/C=C\CCCCCCCC(=O)O [Oleic Acid] | 17520 | −2.50 |  | 
38 | C[C@]12C/C(=C/O)C(=O)C[C@@H]1CC[C@@H]1[C@@H]2CC[C@@]2(C)[C@H]1CC[C@]2(C)O [Oxymetholone] | 92000 | −1.20 |  | 
